The values below come from article PMC12040169 (PLOS Biology, 2025).

Structures are written as SMILES.

The nature of this series: in vitro. The following applies: human, hela cells, % viability.
Regarding `O=C(CNC1Cc2ccccc2C1)Nc1ccc(Cl)cc1C(=O)c1ccccc1Cl` [CBK074764], the viability (in general, a read-out of living cells in per cent, often relative to untreated cells) at 28.5 h, 10 µM came to 100%.
For `COc1cc(OCc2ccccc2)ccc1CN1CCN(Cc2ccccc2)CC1` [CBK074766], the viability at 28.5 h, 10 µM is 88.1%.
The result for `N#Cc1cccc(NC(=O)CN2CCN(C(=O)C3COc4ccccc4O3)CC2)c1` (stereo not shown) [CBK074779] reads 93.5%; that for `O=S1(=O)CCN(Cc2ccc3c(c2)OCO3)CC1` [CBK074780], 93.9%.
As to `O=S1(=O)CCN(CC2COc3ccccc3O2)CC1` (stereo not shown) [CBK074789], the viability at 28.5 h, 10 µM was found to be 88.5%.
The result for `COc1cc2cc(C(=O)N3CCN(Cc4ccc5c(c4)OCO5)CC3)c(=O)oc2cc1OC` [CBK074790] reads 102%; that for `Nc1nc(C2COc3ccccc3O2)ncc1S(=O)(=O)c1ccc(Cl)cc1` (stereo not shown) [CBK074808], 96.2%; that for `O=S(=O)(CCN1CCN(C(c2ccccc2)c2ccccc2)CC1)c1ccc(Cl)cc1` [CBK074810], 92%.
The result for `COc1ccc(CCN2CNc3c(c(=O)n(C)c(=O)n3C)C2)cc1OC` [CBK074818] reads 86%; that for `N[C@H](CSCc1ccccc1)C(=O)Nc1ccc([N+](=O)[O-])cc1` [CBK074824], 88.8%; that for `Cc1cc(C(=O)N2CCN(Cc3ccc4c(c3)OCO4)CC2)nn1C` [CBK074832], 111%.
As to `OC(CN1CCN(Cc2ccc3c(c2)OCO3)CC1)C(F)(F)F` (stereo not shown) [CBK074833], the viability at 28.5 h, 10 µM worked out at 108%.
The same measure for `OC(CNCC1COc2ccccc2O1)C(F)(F)F` (stereo not shown) [CBK074834]: 102%; for `COc1ccccc1N1CCN(CCCCNC(=O)c2ccc(Cl)cc2)CC1` [CBK074835]: 93%.
As for `CC(C)(C)C(=O)N1CCN(Cc2ccc3c(c2)OCO3)CC1` [CBK074842], the viability at 28.5 h, 10 µM was determined as 88.8%.
Regarding `OC(COc1ccc2c(c1)OCO2)CN1CCN(C(c2ccccc2)c2ccccc2)CC1` (stereo not shown) [CBK074854C], the viability at 28.5 h, 10 µM was 87.5%.
As for `OC(COc1ccc(-c2ccccc2)cc1)CN1CCN(Cc2ccccc2)CC1` (stereo not shown) [CBK074855C], the viability at 28.5 h, 10 µM was found to be 94.6%.
For the compound `COc1cccc(OCC(O)CN2CCN(Cc3ccccc3)CC2)c1` (stereo not shown) [CBK074856C], the viability at 28.5 h, 10 µM worked out at 108%.
With `CCCn1c(O)nnc1-c1cccnc1` [CBK074889], the viability at 28.5 h, 10 µM was determined as 86.8%.
The result for `CC(C)CC1OC(NC2CCCCCC2)=NC1=O` (stereo not shown) [CBK074901] reads 88.8%; that for `Cc1ccccc1NC1=NC(=O)C(CC(C)C)O1` (stereo not shown) [CBK074902], 116%.
`CC(C)(C)c1nnc(NCc2ccccc2)s1` [CBK074922]: the viability at 28.5 h, 10 µM was found to be 95.7%.
The result for `CC(=O)N1CCc2c([nH]c3ccccc23)[C@@]12CCN(Cc1ccc(F)cc1)C2` [CBK074955] reads 83%.
With `COc1ccc([C@@]23CC[C@@H](NC(=O)Cc4ccc(Cl)cc4)CC2N(C)CC3)cc1OC` (stereo partly shown) [CBK074971T], the viability at 28.5 h, 10 µM was 96%.
For `COc1ccc([C@@]23CC[C@@H](NC(=O)c4ccc(-c5ccccc5)cc4)CC2N(C)CC3)cc1OC` (stereo partly shown) [CBK074973T], the viability at 28.5 h, 10 µM came out at 89.6%.
Regarding `CCCc1[nH]nc(O)c1Cc1ccc(C(F)(F)F)cc1` [CBK075014], the viability at 28.5 h, 10 µM is 88.9%.
As to `COc1ccc(C(NC(=O)C2CCCN(C(=O)NC(=O)c3ccccc3)C2)c2ccccc2C)cn1` (stereo not shown) [CBK075023], the viability at 28.5 h, 10 µM was found to be 90.9%.
With `CCCc1[nH]nc(O)c1Cc1cc(F)ccc1Br` [CBK075031], the viability at 28.5 h, 10 µM is 94.6%.
On to `CCCc1[nH]nc(O)c1Cc1cccc(C)c1` [CBK075035], for which the viability at 28.5 h, 10 µM came to 91.3%.
As to `CCCc1[nH]nc(O)c1Cc1ccccc1C(F)(F)F` [CBK075037], the viability at 28.5 h, 10 µM is 92.7%.
The result for `COc1ccc(C(NC(=O)[C@H]2CCCN2C(=O)c2c(-c3ccccc3)noc2C)c2ccccc2C)cn1` (stereo partly shown) [CBK075055] reads 98.4%.
On to `CC(C)(C)c1nsc(NC2CCCCCC2)n1` [CBK075061], for which the viability at 28.5 h, 10 µM came out at 96.6%.
The same measure for `CCOC(=O)c1sc(-c2cccc(C(F)(F)F)c2)nc1O` [CBK075064]: 92%.
The same measure for `CCCc1[nH]nc(O)c1CCc1ccccc1` [CBK075083]: 108%; for `O=C1CCC(=O)N1CCOc1nccnc1OC1CCNCC1` [CBK075084T]: 101%; for `CCOC(=O)c1sc(-c2ccc(Br)cc2)nc1O` [CBK075087]: 103%.
Turning to `COc1ccc([C@]23CN(C)C[C@H]2CCN(C(=O)Nc2cccc(Cl)c2)C3)cc1OC` [CBK075104T], the viability at 28.5 h, 10 µM amounted to 112%.
As for `COc1ccc([C@]23CN(C)C[C@H]2CCN(C(=O)Nc2cccc(Br)c2)C3)cc1OC` [CBK075106T], the viability at 28.5 h, 10 µM is 105%.
For `COc1ccc([C@]23CN(C)C[C@H]2CCN(C(=O)c2ccc4c(c2)OC(F)(F)O4)C3)cc1OC` [CBK075110T], the viability at 28.5 h, 10 µM was found to be 94.8%.
For `COc1ccc(-c2c(O)n[nH]c2CCC2CCCC2)cc1` [CBK075126], the viability at 28.5 h, 10 µM stood at 88.1%.
The same measure for `COc1ccccc1-c1c(O)n[nH]c1C(C)C` [CBK075133]: 111%.
On to `CCN1C(=O)C2(CC(=O)N(CCCN(C)C(=O)c3ccco3)C2=O)c2cc(C)ccc21` (stereo not shown) [CBK075141], for which the viability at 28.5 h, 10 µM came out at 94.3%.
As for `COC(=O)CN1C(=O)CC2(C1=O)C(=O)N(Cc1ccccc1)c1ccc(F)cc12` (stereo not shown) [CBK075143], the viability at 28.5 h, 10 µM was found to be 95.7%.
The result for `CNC(=O)CN1C(=O)CC2(C1=O)C(=O)N(CCOC)c1ccc(OC)cc12` (stereo not shown) [CBK075144] reads 90.8%; that for `COCCN1C(=O)C2(CC(=O)N(CCCCC(C)C)C2=O)c2cc(OC)ccc21` (stereo not shown) [CBK075145], 109%; that for `C=CCN1C(=O)C2(CC(=O)N(Cc3ccc(OC)c(OC)c3)C2=O)c2ccccc21` (stereo not shown) [CBK075148], 114%.
Regarding `C=CCN1C(=O)C2(CC(=O)N(CCOc3ccccc3)C2=O)c2ccccc21` (stereo not shown) [CBK075159], the viability at 28.5 h, 10 µM came to 101%.
Consider `COCCN1C(=O)C2(CC(=O)N(CC3CCCCC3)C2=O)c2cc(OC)ccc21` (stereo not shown) [CBK075166], for which the viability at 28.5 h, 10 µM amounted to 90%.
`CCN1C(=O)C2(CC(=O)N(Cc3ccc(OC)c(OC)c3)C2=O)c2cc(C)ccc21` (stereo not shown) [CBK075172]: the viability at 28.5 h, 10 µM amounted to 85.4%.
With `CCN1C(=O)C2(CC(=O)N(CCCCC(C)C)C2=O)c2cc(C)ccc21` (stereo not shown) [CBK075173], the viability at 28.5 h, 10 µM amounted to 103%.
The result for `COCCN1C(=O)C2(CC(=O)N(Cc3ccccc3)C2=O)c2cc(OC)ccc21` (stereo not shown) [CBK075177] reads 92.5%; that for `COCCN1C(=O)C2(CC(=O)N(CCN3CCCC3=O)C2=O)c2cc(OC)ccc21` (stereo not shown) [CBK075189], 92.4%.
On to `CCN1C(=O)C2(CC(=O)N(CCc3cccc(OC)c3)C2=O)c2cc(C)ccc21` (stereo not shown) [CBK075195], for which the viability at 28.5 h, 10 µM was found to be 96.7%.
Take `COc1ccc2c(c1)C1(CC(=O)N(CCc3scnc3C)C1=O)C(=O)N2C` (stereo not shown) [CBK075213]: the viability at 28.5 h, 10 µM came to 91.6%.
Regarding `CCN1C(=O)C2(CC(=O)N(CCc3scnc3C)C2=O)c2cc(C)ccc21` (stereo not shown) [CBK075217], the viability at 28.5 h, 10 µM turned out to be 96.8%.
For `COc1ccc2c(c1)C1(CC(=O)N(Cc3ccccc3)C1=O)C(=O)N2Cc1ccccc1` (stereo not shown) [CBK075228], the viability at 28.5 h, 10 µM is 106%.
`CCN1C(=O)C2(CC(=O)N(Cc3ccccc3)C2=O)c2cc(Cl)ccc21` (stereo not shown) [CBK075233]: the viability at 28.5 h, 10 µM was 99.1%.
On to `CCN1C(=O)C2(CC(=O)N(CC(=O)OC)C2=O)c2cc(Cl)ccc21` (stereo not shown) [CBK075234], for which the viability at 28.5 h, 10 µM came out at 93.7%.
The same measure for `COc1ccc2c(c1)C1(CC(=O)N(Cc3cccnc3)C1=O)C(=O)N2C` (stereo not shown) [CBK075236]: 103%; for `COc1ccc2c(c1)C1(CC(=O)N(CCc3scnc3C)C1=O)C(=O)N2Cc1ccccc1` (stereo not shown) [CBK075240]: 95.7%.
For the compound `C=CCN1C(=O)CC2(C1=O)C(=O)N(C)c1ccc(Cl)cc12` (stereo not shown) [CBK075242], the viability at 28.5 h, 10 µM was 110%.
The same measure for `CN1C(=O)C2(CC(=O)N(CC3CCCCC3)C2=O)c2cc(F)ccc21` (stereo not shown) [CBK075257]: 106%; for `CN1C(=O)C2(CC(=O)N(Cc3ccccc3)C2=O)c2cc(F)ccc21` (stereo not shown) [CBK075268]: 98.6%; for `C=CCN1C(=O)C2(CC(=O)N(Cc3ccccc3)C2=O)c2cc(OC)ccc21` (stereo not shown) [CBK075281]: 103%.
Regarding `C=CCN1C(=O)CC2(C1=O)C(=O)N(CC)c1ccc(F)cc12` (stereo not shown) [CBK075316], the viability at 28.5 h, 10 µM amounted to 115%.
Take `C=CCN1C(=O)C2(CC(=O)N(CC)C2=O)c2cc(F)ccc21` (stereo not shown) [CBK075318]: the viability at 28.5 h, 10 µM was determined as 100%.
Turning to `COCCN1C(=O)C2(CC(=O)N(CCCN3C(=O)CCC3=O)C2=O)c2ccccc21` (stereo not shown) [CBK075333], the viability at 28.5 h, 10 µM amounted to 117%.
Regarding `COCCN1C(=O)C2(CC(=O)N(CC3CCCCC3)C2=O)c2ccccc21` (stereo not shown) [CBK075355], the viability at 28.5 h, 10 µM was determined as 97.8%.
As to `C=CCN1C(=O)CC2(C1=O)C(=O)N(Cc1ccc(S(=O)(=O)N(CC)CC)cc1)c1ccc(Cl)cc12` (stereo not shown) [CBK075412], the viability at 28.5 h, 10 µM came to 98%.
`C=CCN1C(=O)CC2(C1=O)C(=O)N(CCCN1C(=O)c3ccccc3C1=O)c1ccc(Cl)cc12` (stereo not shown) [CBK075443]: the viability at 28.5 h, 10 µM was 92.6%.
As to `C=CCN1C(=O)CC2(C1=O)C(=O)N(Cc1csc(-c3ccccc3)n1)c1ccc(Cl)cc12` (stereo not shown) [CBK075445], the viability at 28.5 h, 10 µM stood at 99.6%.
Consider `COc1ccc(CN2C(=O)CC3(C2=O)C(=O)N(C)c2ccccc23)cc1OC` (stereo not shown) [CBK075450], for which the viability at 28.5 h, 10 µM amounted to 91.8%.
For the compound `CN1C(=O)CC2(C1=O)C(=O)N(CCN1CCCC1=O)c1ccc(F)cc12` (stereo not shown) [CBK075463], the viability at 28.5 h, 10 µM is 90.4%.
With `COc1cc(OC)nc(CN2C(=O)C3(CC(=O)N(C)C3=O)c3cc(F)ccc32)n1` (stereo not shown) [CBK075475], the viability at 28.5 h, 10 µM was 110%.
Take `COc1ccc2c(c1)C1(CC(=O)N(Cc3ccccc3)C1=O)C(=O)N2CCn1cnc2c1c(=O)n(C)c(=O)n2C` (stereo not shown) [CBK075478]: the viability at 28.5 h, 10 µM came to 93.5%.
On to `COCCN1C(=O)C2(CC(=O)N(CCNS(C)(=O)=O)C2=O)c2cc(C)ccc21` (stereo not shown) [CBK075479], for which the viability at 28.5 h, 10 µM was 98.2%.
